Experimental data published in patent US20200131156A1, “ARYLSULFONYLPYROLECARBOXAMIDE DERIVATIVES AS Kv3 POTASSIUM CHANNEL ACTIVATORS” (H. Lundbeck A/S, priority 2018, published 2020).

Legend:
[1] = tested on: fast-spiking interneurons (FSI); test: Hippocampal brain slice voltage clamp recording, outward K+ current from FSI; format: cell-based, rat; conditions: 10 μM; for Outward current in presence of compound relative to baseline: step to 0 mV, baseline 100%
Description: Male Sprague Dawley rats (18˜24 days old) from Shanghai Laboratory Animal Center (Shanghai, China) were used for brain slice experiments. They were housed in groups of five in controlled conditions (temperature of 23±3° C., humidity of 40-70%, and 12:12 light-dark cycle with lights on at 5:00 am) and free access to food and water. All procedures were conducted in agreement with the guideline of Institutional Animal Care and Use Committee at ChemPartner. Ethical approval was obtained by the The Danish Animal Experimentation Inspectorate (journal no. 2014 15 0201 00339).
Animals were decapitated by a guillotine and their brains quickly removed and placed in ice-cold modified artificial cerebral spinal fluid (ACSF) containing (in mM): 110 sucrose, 60 NaCl, 3 KCl, 5 glucose, 28 NaHCO3, 1.25 NaH2PO4, 0.5 CaCl2 and 7 MgCl2, aerated with 95% O2/5% CO2. The brains were block-trimmed and glued onto the stage of a vibratome (VT1200S, Leica Microsystems Inc., Bannockburn, Ill., USA). Parasagittal hippocampal slices (300 μm) were cut and incubated in the regular carbogenated ACSF containing (in mM): 119 NaCl, 2.5 KCl, 1.2 Na2HPO4, 25 NaHCO3, 2.5 CaCl2, 1.3 MgCl2, 10 glucose at 35° C. for the first 60 min and then transferred to room temperature prior to recordings.
In the hippocampal CA1 pyramidal cell layer, fast-spiking interneurons (FSI) or pyramidal (PYR) cells were visualized using differential interference contrast-infrared (DIC-IR)-assisted microscopy and whole-cell patch clamp recordings performed using an Axon Multiclamp 700B amplifier (Molecular Devices, Union City, Calif.). FSI were selected based on non-pyramidal shape and multipolar dendrites. […]
Whole cell patch clamp recordings in voltage clamp mode were used to study the outward K^+ current from FSI or PYR cells. […] Outward K^+ current was recorded in the presence of 1 μM TTX and 10 μM DNQX in the ACSF to inhibit voltage-gated Na^+ channels and AMPA channels, respectively. […] For all recordings, the access resistance was monitored throughout the experiments. […]

[2] = Unbound fraction in plasma; format: in vitro ADME, rat
[3] = target: hKv7.2/7.3 (Homo sapiens, UniProt O43525+O43526); test: Off-target Kv7.2/7.3 activation, fluorescence-based ion flux assay (FDSS); format: cell-based; conditions: up to 30 μM
Description: The activity of selected compound examples at three key ion channel off targets was measured, namely Nav1.1, Kv1.1/1.2 and Kv7.2/7.3.
Effects of selected examples on activation of the voltage gated heteromeric potassium channel Kv7.2/7.3 was tested in a fluorescence-based ion flux assay at concentrations up to 30 μM.

[4] = Unbound fraction in brain (mouse PK table footnote); format: in vitro ADME
[5] = In vivo pharmacokinetic time profile in mice (plasma and brain); parameters: species or system mouse; conditions: for Kp / half-life / Cmax: male; for Kp: C57, mouse, brain, read-out: measured brain/plasma ratio; for half-life / Cmax: C57, plasma; for half-life / Cmax / Estimated unbound brain Cmax / Unbound plasma, Cmax: mouse; for half-life: read-out: T½ (converted)
Description: (§1) Male Sprague Dawley rats or male C57 mice from SLAC Laboratory Animal Co. Ltd., Shanghai, China or SIPPR/BK Laboratory Animal Co. Ltd., Shanghai, China were used for pharmacokinetic studies. Animals were group housed during acclimation and individually housed during in-life. The animal room environment was controlled (conditions: temperature 20 to 26° C., relative humidity 30 to 70%, 12 hours artificial light and 12 hours dark) and all animals have access to Certified Rodent Diet (Beijing KEAO XIELI Feed Co., Ltd. Beijing, P.R. China.) ad libitum. Animals were deprived of food overnight prior to dosing and fed approximately 4 hours post-dosing. Water was autoclaved before provided to the animals ad libitum.
(§2) For oral dosing, the dose formulation was administered via oral gavage.
(§3) Animals were anesthetized via isoflurane. At terminal time point, about 200 μL blood was collected from cardiac puncture or abdominal vein. All blood samples were transferred into microcentrifuge tubes containing 5 μL of K2EDTA (0.5 M) as anti-coagulant and placed on wet ice until processed for plasma by centrifugation (3,000 rpm for 5 minutes at 2 to 8° C.) within half an hour of collection and kept at −70±10° C. until LC/MSMS analysis
(§4) After blood collection, brain was harvested and washed twice with cold deionized water, and blotted on filter paper, weighted and frozen until processed. Brain samples were thawed and homogenized with 4-fold of cold water using Covaris (peak power 450.0, Duty Factor 20.0, Cycles/Burst 200). for 3 min, vortex for 10 second every 1 min. Samples were further stored at −79° C. (dilution factor=5) until bioanalysis

[6] = In vivo pharmacokinetic time profile in rats (plasma and brain); conditions: rat; for Cmax / half-life / Kp: male, Sprague Dawley; for Cmax / half-life: plasma; for Cmax: vehicle 10% HP-betaCD; for half-life: read-out: T½ (converted); for Kp: brain, read-out: measured brain/plasma ratio
Description: as §1, §2, §3, §4

[7] = 3 mg/mg, SC administration, dose 3 (mg/mg [sic])
[8] = 30 mg/mg, SC administration, dose 30 (mg/mg [sic])
[9] = PO, dose 3 (mg/mg), unbound fraction in plasma 10%
[10] = PO, dose 30 (mg/mg), unbound fraction in plasma 10%
[11] = SC, dose 3 (mg/mg), unbound fraction in plasma 10%
[12] = SC, dose 10 (mg/mg), unbound fraction in plasma 10%
[13] = PO administration, dose 3 (mg/mg)
[14] = PO administration, dose 30 (mg/mg)
[15] = SC administration, dose 3 (mg/mg)
[16] = SC administration, dose 10 (mg/mg)

For Cc1ccc(S(=O)(=O)n2ccc(C(=O)NCc3ncco3)c2)cc1 [Compound 86, 1-(4-methylbenzene-1-sulfonyl)-N-[(1,3-oxazol-2-yl)methyl]-1H-pyrrole-3-carboxamide], which “Outward current in presence of compound relative to baseline” value [1] is on record?
The value was 121±2%.

And the fraction unbound ([2]; rat table footnote)?
The fraction unbound was 0.12.

And the EC50 [3]?
Its EC50 is over 30 µM.

And the fraction unbound [4]?
The fraction unbound was 0.11.

And the Kp ([5]; subcutaneous)?
The Kp was 0.3.

What about the half-life ([5]; SC administration, dose 3 (mg/mg) (Table 7)) of the same compound?
The half-life was 42 min.

And the Cmax ([5]; SC administration, dose 3 (mg/mg), vehicle 10% HP-betaCD (Table 7))?
The Cmax was 3020 ng/mL.

What about the half-life ([5]; SC administration, dose 30 (mg/mg) (Table 7)) of the same compound?
Its half-life is 36 min.

What about the Cmax ([5]; SC administration, dose 30 (mg/mg), vehicle 10% HP-betaCD (Table 7)) of the same compound?
The Cmax was 22000 ng/mL.

And the “Estimated unbound brain Cmax” value ([5]; SC, dose 3 (mg/mg), based on brain/plasma ratio 0.3 and unbound fraction in brain 11%)?
Its value is 289 nM.

What about the “Unbound plasma, Cmax” value ([5]; SC, dose 3 (mg/mg), unbound fraction in plasma 8%) of the same compound?
Its value is 700 nM.

And the “Estimated unbound brain Cmax” value ([5]; SC, dose 30 (mg/mg), based on brain/plasma ratio 0.3 and unbound fraction in brain 11%)?
Its value is 2100 nM.

And the “Unbound plasma, Cmax” value ([5]; SC, dose 30 (mg/mg), unbound fraction in plasma 8%)?
Its value is 5094 nM.

And the Cmax [6, 7]?
The Cmax was 1100 ng/mL.

What about the half-life [6, 7] of the same compound?
Its half-life is 18 min.

What about the Cmax [6, 8] of the same compound?
Its Cmax is 7620 ng/mL.

What about the half-life [6, 8] of the same compound?
The half-life was 24 min.

What about the Kp ([6]; subcutaneous) of the same compound?
Its Kp is 0.25.

What about the “Estimated unbound brain Cmax” value ([6]; SC, dose 3 (mg/mg [sic]), based on brain/plasma ratio 0.25 and unbound fraction in brain 12%) of the same compound?
The value was 95 nM.

What about the “Unbound plasma, Cmax” value ([6]; SC, dose 3 (mg/mg [sic]), unbound fraction in plasma 12%) of the same compound?
The value was 380 nM.

And the “Estimated unbound brain Cmax” value ([6]; SC, dose 30 (mg/mg [sic]), based on brain/plasma ratio 0.25 and unbound fraction in brain 12%)?
Its value is 663 nM.

What about the “Unbound plasma, Cmax” value ([6]; SC, dose 30 (mg/mg [sic]), unbound fraction in plasma 12%) of the same compound?
Its value is 2650 nM.

Which “Reversibility of compound-mediated increase in outward K+ current (Wash)” value [1] does the source give for Cc1cnc(CNC(=O)c2ccn(S(=O)(=O)c3ccc(F)cc3C)c2)cn1 [Compound 90, 1-(4-fluoro-2-methylbenzene-1-sulfonyl)-N-[(5-methylpyrazin-2-yl)methyl]-1H-pyrrole-3-carboxamide] here?
Its value is “largely reversible”.

What about the “Outward current in presence of compound relative to baseline” value [1] of the same compound?
The value was 144±4%.

What about the fraction unbound ([2]; rat PK table footnote) of the same compound?
The fraction unbound was 0.1.

What about the EC50 [3] of the same compound?
Its EC50 is over 30 µM.

And the fraction unbound [4]?
Its fraction unbound is 0.1.

What about the Kp [5] of the same compound?
The Kp was 0.4.

What about the Cmax ([5]; 3 mg/kg, PO administration, dose 3 (mg/mg), vehicle 10% HP-betaCD) of the same compound?
The Cmax was 274 ng/mL.

What about the half-life ([5]; 3 mg/kg, PO administration, dose 3 (mg/mg)) of the same compound?
Its half-life is 60 min.

What about the Cmax ([5]; 3 mg/kg, SC administration, dose 3 (mg/mg), vehicle 10% HP-betaCD) of the same compound?
Its Cmax is 1130 ng/mL.

What about the half-life ([5]; 3 mg/kg, SC administration, dose 3 (mg/mg)) of the same compound?
Its half-life is 30 min.

What about the Cmax ([5]; 10 mg/kg, SC administration, dose 10 (mg/mg), vehicle 10% HP-betaCD) of the same compound?
Its Cmax is 6360 ng/mL.

And the half-life ([5]; 10 mg/kg, SC administration, dose 10 (mg/mg))?
The half-life was 78 min.

What about the Cmax ([5]; 30 mg/kg, PO administration, dose 30 (mg/mg), vehicle 10% HP-betaCD) of the same compound?
Its Cmax is 7350 ng/mL.

And the half-life ([5]; 30 mg/kg, PO administration, dose 30 (mg/mg))?
Its half-life is 60 min.

And the “Estimated unbound brain Cmax” value ([5]; PO, dose 3 (mg/mg), based on brain/plasma ratio 0.4 and unbound fraction in brain 10%)?
The value was 28 nM.

And the “Unbound plasma, Cmax” value [5, 9]?
Its value is 70 nM.

And the “Estimated unbound brain Cmax” value ([5]; PO, dose 30 (mg/mg), based on brain/plasma ratio 0.4 and unbound fraction in brain 10%)?
The value was 753 nM.

And the “Unbound plasma, Cmax” value [5, 10]?
The value was 1895 nM.

And the “Estimated unbound brain Cmax” value ([5]; SC, dose 3 (mg/mg), based on brain/plasma ratio 0.4 and unbound fraction in brain 10%)?
Its value is 116 nM.

And the “Unbound plasma, Cmax” value [5, 11]?
Its value is 291 nM.

What about the “Estimated unbound brain Cmax” value ([5]; SC, dose 10 (mg/mg), based on brain/plasma ratio 0.4 and unbound fraction in brain 10%) of the same compound?
The value was 656 nM.

And the “Unbound plasma, Cmax” value [5, 12]?
The value was 1639 nM.

What about the Cmax [6, 13] of the same compound?
Its Cmax is 627 ng/mL.

What about the half-life [6, 13] of the same compound?
The half-life was 120 min.

And the Cmax [6, 14]?
Its Cmax is 3940 ng/mL.

And the half-life [6, 14]?
The half-life was 66 min.

And the Cmax [6, 15]?
The Cmax was 427 ng/mL.

What about the half-life [6, 15] of the same compound?
The half-life was 48 min.

What about the Cmax [6, 16] of the same compound?
Its Cmax is 1370 ng/mL.

What about the half-life [6, 16] of the same compound?
The half-life was 42 min.

What about the Kp [6] of the same compound?
Its Kp is 0.5.

And the “Estimated unbound brain Cmax” value ([6]; PO, dose 3 (mg/mg), based on brain/plasma ratio 0.5 and unbound fraction in brain 8%)?
Its value is 65 nM.

What about the “Unbound plasma, Cmax” value [6, 9] of the same compound?
The value was 160 nM.

What about the “Estimated unbound brain Cmax” value ([6]; PO, dose 30 (mg/mg), based on brain/plasma ratio 0.5 and unbound fraction in brain 8%) of the same compound?
Its value is 406 nM.

What about the “Unbound plasma, Cmax” value [6, 10] of the same compound?
Its value is 1015 nM.

What about the “Estimated unbound brain Cmax” value ([6]; SC, dose 3 (mg/mg), based on brain/plasma ratio 0.5 and unbound fraction in brain 8%) of the same compound?
Its value is 44 nM.

And the “Unbound plasma, Cmax” value [6, 11]?
The value was 110 nM.

And the “Estimated unbound brain Cmax” value ([6]; SC, dose 10 (mg/mg), based on brain/plasma ratio 0.5 and unbound fraction in brain 8%)?
The value was 142 nM.

And the “Unbound plasma, Cmax” value [6, 12]?
Its value is 353 nM.
